The values that follow come from PubChem BioAssay (NCI).

Common to all, as to assay: growth of human tumour cells (NCI), 48 h
For experiment [1], the system named is IGROV1 ovarian.
Experiment [2] deals with HOP-92 NSCLC.
Experiment [3] has as its system COLO 205 colon.
In experiment [4] the test system is BT-549 breast.
In experiment [5] the test system is RXF 393 renal.
Experiment [6] relates to MDA-MB-231 breast.
Experiment [7] relates to UACC-257 melanoma.
Experiment [8] deals with M14 melanoma.
For experiment [9], the system named is UACC-62 melanoma.
The subject of experiment [10] is SF-295 CNS.
Experiment [11] concerns SK-OV-3 ovarian.
The subject of experiment [12] is HS 578T breast.
The subject of experiment [13] is DU-145 prostate.
Experiment [14] relates to OVCAR-8 ovarian.
Experiment [15] relates to MALME-3M melanoma.
In experiment [16] the test system is LOX IMVI melanoma.
Experiment [17] deals with HL-60(TB) leukemia.
The subject of experiment [18] is T-47D breast.

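How tested: cells in 96-well plates exposed to compound for 48 hours at five concentrations. TGI: concentration producing complete growth inhibition.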 Where only a bound is given, the exact number is not on record here.

As to `COc1ccc(CN2C[C@H]3[C@@H](CC(=O)O[C@H]3C)CC2=O)cc1`, the TGI in experiment [1], in experiment [2], in experiment [3], in [4], in [5] and in [6] was > 100 µM each time. Moreover, the TGI in [7], in experiment [8], in [9], in experiment [10], in experiment [11] and in experiment [12] was > 100 µM each time. The TGI in [13], in experiment [14] and in [15] was > 100 µM throughout.

Consider `C=CC(Cl)(CBr)CCC(Br)=C(C)C` (stereo not drawn), for which the TGI was 29.9 µM in experiment [1]; 35.2 µM in experiment [2]; 33.4 µM in experiment [3]; 44.4 µM in experiment [4]; 38.5 µM in [5]; 37.5 µM in experiment [6]. In addition, the TGI in experiment [16] was 37.8 µM; in experiment [7], 59.5 µM; in [8] it was > 100 µM; in experiment [9], 36 µM; in [10], > 100 µM; in experiment [12] it was 76.2 µM. The TGI in experiment [13] is > 100 µM; in experiment [14], 64.6 µM; in experiment [15] it was 34.5 µM.

Consider `N#Cc1ccc(Oc2nc3ccccc3nc2-c2ccccc2)cc1`, for which the TGI in experiment [1], in experiment [2], in [3], in experiment [4], in experiment [5] and in [6] was > 100 µM throughout. Further, the TGI in experiment [16], in [7], in experiment [9], in experiment [10], in experiment [11] and in experiment [12] was > 100 µM in each case. Moreover, the TGI in experiment [13], in [17] and in [15] was > 100 µM each time.

In the case of `COc1cc2c(cc1OCCCOc1cc(-c3ccc(F)cc3)nc(C)n1)N=C[C@@H]1CCCN1C2=O`, the TGI is 44.8 µM in [1]; > 100 µM in [2]; > 100 µM in [3]; 54.3 µM in experiment [5]; 30 µM in experiment [6]; 28.3 µM in experiment [16]. Besides, the TGI in experiment [7] is 43 µM; in [8] it was 29.3 µM; in [9], 28.7 µM; in [10], 31 µM; in [18], > 100 µM; in experiment [11], 62.7 µM. Besides, the TGI in [12] was 94.3 µM; in experiment [13], 36.1 µM; in experiment [17], 54.1 µM; in experiment [14] it was > 100 µM; in [15] it was 27.3 µM.

On to `CC1Cc2c(Br)nc(N)nc2NC1=O` (stereo not drawn), for which the TGI in experiment [1], in [3], in experiment [4], in [6], in experiment [16] and in experiment [7] was > 100 µM in each case. In addition, the TGI in experiment [8], in [9], in experiment [10], in experiment [18], in experiment [11] and in experiment [12] was > 100 µM each time. Also, the TGI in experiment [13], in experiment [14] and in experiment [15] was > 100 µM in each case.

On to `Cc1ccc(/C(O)=C/c2nc3ccccc3oc2=O)cc1`, for which the TGI in experiment [1], in [3], in experiment [4], in experiment [5], in experiment [6] and in experiment [7] was > 100 µM in each case. The TGI in experiment [8], in experiment [9], in experiment [10], in experiment [18], in experiment [12] and in experiment [13] was > 100 µM each time. Moreover, the TGI in experiment [14] and in experiment [15] was > 100 µM each time.

Consider `C[C@H]1O[C@@H](c2c(O)ccc3ccccc23)C[C@@H](N(C)C)C1O` (stereo partly drawn), for which the TGI in experiment [1] was > 100 µM; in experiment [2], > 100 µM; in experiment [3], > 100 µM; in experiment [4], > 100 µM; in experiment [5], 77.3 µM; in [6] it was > 100 µM. For the same compound, the TGI in [16], in experiment [7], in experiment [8], in experiment [9], in experiment [10] and in experiment [11] was > 100 µM each time. Also, the TGI in experiment [12], in [13], in [17], in experiment [14] and in [15] was > 100 µM each time.

On to `COc1ccc2cc(C(C)C(O)c3cc(F)c(F)c(F)c3F)ccc2c1` (stereo not drawn), for which the TGI in experiment [1], in [2], in experiment [3], in experiment [4], in [6] and in experiment [16] was > 100 µM each time. Moreover, the TGI in [7], in experiment [8], in [9], in experiment [10], in experiment [18] and in experiment [11] was > 100 µM in each case. The TGI in experiment [13], in experiment [17], in [14] and in experiment [15] was > 100 µM throughout.

In the case of `CCOC(=O)Cc1nnc2c(-c3ccccc3)nc3ccccc3n12`, the TGI was > 100 µM in [1]; > 100 µM in experiment [2]; > 100 µM in experiment [3]; > 100 µM in experiment [4]; 36.4 µM in [5]; 45.3 µM in experiment [6]. The TGI in experiment [16] was > 100 µM; in [7], > 100 µM; in experiment [8], > 100 µM; in experiment [9], > 100 µM; in experiment [11], 67.6 µM; in experiment [13], 73.4 µM. The TGI in experiment [17] and in experiment [15] was > 100 µM throughout.
